Among the data in PubChem BioAssay (NCI) are TGI values, retold here.

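How tested: cells in 96-well plates exposed to compound for 48 hours at five concentrations. TGI denotes the concentration required for complete inhibition of growth.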

Among the test systems are EKVX NSCLC; ACHN renal; MALME-3M melanoma; MDA-MB-231 breast; HT29 colon; HOP-92 NSCLC; SF-539 CNS; SK-MEL-2 melanoma.
Holding throughout (assay): growth of human tumour cells (NCI), 48 h

Consider `CC(=O)Oc1ccc2cc(Oc3ccc(Cl)cc3)c(=O)oc2c1`, for which the TGI in the test with EKVX NSCLC, in the test with ACHN renal, with MALME-3M melanoma, in the test on MDA-MB-231 breast, with HT29 colon and in the test with HOP-92 NSCLC was above 100 µM in each case. The compound further had a TGI in the test with SF-539 CNS of 82.7 µM.
On to `O=C1/C(=C/c2ccccc2S)N=C(c2ccccc2)N1c1ccc2c(c1)Sc1cc(N3C(=O)/C(=C/c4ccccc4S)N=C3c3ccccc3)ccc1N2`, for which the TGI was 41.6 µM in the test on EKVX NSCLC; 33.5 µM in the test on ACHN renal; 44.8 µM with SK-MEL-2 melanoma; 89.9 µM with MDA-MB-231 breast; above 100 µM in the test with HT29 colon; 34.5 µM in the test on HOP-92 NSCLC. This compound also displayed a TGI in the test with SF-539 CNS of 24.1 µM.
For `Cc1ccc(Nc2nc(=O)[nH]c(=O)[nH]2)cc1N`, the TGI in the test with EKVX NSCLC, in the test with ACHN renal, in the test with MALME-3M melanoma, with SK-MEL-2 melanoma, with MDA-MB-231 breast and in the test on HT29 colon was above 100 µM in each case. Further, the TGI with HOP-92 NSCLC and in the test on SF-539 CNS was above 100 µM in each case.
`N#Cc1c(N)c(-c2ccc(Cl)cc2)c(F)c2ccccc12`: the TGI in the test on EKVX NSCLC, in the test on ACHN renal, in the test on MALME-3M melanoma, in the test with SK-MEL-2 melanoma, in the test with MDA-MB-231 breast and with HT29 colon was above 100 µM in each case. In addition, the values for the TGI with HOP-92 NSCLC and in the test on SF-539 CNS were 59.4 µM and above 100 µM, respectively.
As for `Oc1c2cccc1Cc1cccc3c1OCCOCCOCCOCCOc1c(cccc1Cc1cccc(c1O)C3)C2`, the TGI with EKVX NSCLC, in the test with ACHN renal, in the test with SK-MEL-2 melanoma, in the test with MDA-MB-231 breast, in the test on HT29 colon and with HOP-92 NSCLC was above 100 µM throughout. In the test on SF-539 CNS, this compound came in with a TGI above 100 µM.
On to `O=C1/C(=C/c2cccc(Oc3ccccc3)c2)N=C(c2ccccc2)N1c1nc2ccc(Sc3ccccc3)cc2[nH]1`, for which the TGI with EKVX NSCLC was above 100 µM; with ACHN renal, above 100 µM; in the test on MALME-3M melanoma, above 100 µM; in the test with SK-MEL-2 melanoma, 38.4 µM; in the test with MDA-MB-231 breast, 49.9 µM; with HT29 colon, 63.2 µM. Also, the TGI in the test with HOP-92 NSCLC is above 100 µM.
Turning to `COc1cc(C2SCC(=O)N2NC(=O)c2ccc(NC(C)=O)cc2)cc(OC)c1OC` (centres undefined), the TGI in the test with EKVX NSCLC, in the test on ACHN renal, in the test on SK-MEL-2 melanoma, with MDA-MB-231 breast, in the test on HT29 colon and with HOP-92 NSCLC was above 100 µM throughout. The TGI in the test with SF-539 CNS is above 100 µM.
For `O=C1NC(=O)/C(=C\c2ccncc2)N1`, the TGI in the test on EKVX NSCLC, with ACHN renal, with SK-MEL-2 melanoma, with MDA-MB-231 breast, in the test with HT29 colon and with HOP-92 NSCLC was above 100 µM each time. In addition, in the test on SF-539 CNS, the TGI was above 100 µM.
Take `O=C1c2cc3c(cc2CC12Cc1cc4c(cc1C2)CCC4)CCC3`: the TGI in the test with EKVX NSCLC, in the test with ACHN renal, with MALME-3M melanoma, with SK-MEL-2 melanoma, in the test with MDA-MB-231 breast and in the test with HT29 colon was above 100 µM in each case. The TGI in the test on HOP-92 NSCLC and in the test on SF-539 CNS was above 100 µM each time.
On to `C=CCc1c(O)c2ccccc2[nH]c1=O`, for which the TGI in the test on EKVX NSCLC, in the test with ACHN renal, in the test with MALME-3M melanoma, in the test with MDA-MB-231 breast, in the test on HT29 colon and in the test on HOP-92 NSCLC was above 100 µM in each case. Further, the TGI in the test with SF-539 CNS was above 100 µM.
Consider `CCCCC[C@H](O)[C@H](C)C=C1SCCCS1`, for which the TGI in the test on EKVX NSCLC, with ACHN renal, in the test with MALME-3M melanoma, in the test on SK-MEL-2 melanoma, in the test on MDA-MB-231 breast and in the test on HT29 colon was above 100 µM each time. Also, the TGI in the test with HOP-92 NSCLC is above 100 µM.
Take `O=C1CSC2(CC(/C=C/C=C/c3ccccc3)=NN2c2cccc(S(=O)(=O)O)c2)N1c1nc2ccccc2s1` (centres undefined): the TGI with EKVX NSCLC, in the test with ACHN renal, in the test on SK-MEL-2 melanoma, in the test with MDA-MB-231 breast, in the test with HT29 colon and in the test with HOP-92 NSCLC was above 100 µM each time. Moreover, the TGI in the test with SF-539 CNS was above 100 µM.
For `Cc1cccc(NC(=O)CC(=O)N2N=C(N3c4ccccc4Sc4ccccc43)CC2c2ccccc2)c1` (centres undefined), the TGI in the test with EKVX NSCLC, with ACHN renal, with SK-MEL-2 melanoma, in the test with MDA-MB-231 breast, in the test on HT29 colon and in the test on HOP-92 NSCLC was above 100 µM each time. The compound also gave a TGI in the test with SF-539 CNS above 100 µM.
Regarding `N#Cc1c(=O)c2cccnc2n2c1[nH]c1ccccc12`, the TGI was above 100 µM in the test with EKVX NSCLC; above 100 µM with ACHN renal; above 100 µM in the test with SK-MEL-2 melanoma; above 100 µM in the test on MDA-MB-231 breast; above 100 µM in the test with HT29 colon; 68.4 µM with HOP-92 NSCLC. In the test with SF-539 CNS, this compound registered a TGI above 100 µM.
Turning to `[N-]=[N+]=NC1(c2ccccc2)C(=O)Nc2ccccc2C1=O` (centres undefined), the TGI in the test on ACHN renal is above 100 µM; in the test on MALME-3M melanoma, above 100 µM; in the test on SK-MEL-2 melanoma it was 67.3 µM; in the test with MDA-MB-231 breast it was above 100 µM; with HT29 colon it was above 100 µM; with HOP-92 NSCLC, 84.5 µM. Further, the TGI with SF-539 CNS is above 100 µM.
Consider `Cc1cnc(Cl)nc1C(C#N)c1nc2ccccc2n1C` (centres undefined), for which the TGI is 57.1 µM in the test on EKVX NSCLC; above 100 µM in the test with ACHN renal; above 100 µM in the test on MALME-3M melanoma; above 100 µM in the test with MDA-MB-231 breast; above 100 µM in the test on HT29 colon; above 100 µM with HOP-92 NSCLC. Also, in the test on SF-539 CNS, the TGI is 71.3 µM.
For the compound `O=c1c(Cc2ccc(Cl)cc2)nnc2sc(-c3ccc([N+](=O)[O-])cc3)nn12`, the TGI in the test on EKVX NSCLC was 64.4 µM; with ACHN renal it was 87.3 µM; in the test on MALME-3M melanoma, 55.5 µM; in the test on SK-MEL-2 melanoma it was 33.7 µM; in the test on MDA-MB-231 breast, 66.3 µM; in the test on HT29 colon, above 100 µM. For the same compound, in the test with HOP-92 NSCLC, the TGI was above 100 µM.
For the compound `CC1(C)OC[C@@H](/C=C\CCO[Si](c2ccccc2)(c2ccccc2)C(C)(C)C)N1C(=O)c1ccccc1`, the TGI was 25.8 µM in the test on EKVX NSCLC; above 100 µM in the test with ACHN renal; 19.6 µM with SK-MEL-2 melanoma; 38.4 µM in the test with MDA-MB-231 breast; 17.3 µM in the test on HT29 colon; 52.7 µM in the test on HOP-92 NSCLC. The same compound came in with a TGI with SF-539 CNS of 45.4 µM.
Turning to `Cc1cs/c(=N\C(P(=O)(O)O)P(=O)(O)O)n1C`, the TGI in the test with EKVX NSCLC, in the test on ACHN renal, in the test with MALME-3M melanoma, in the test on MDA-MB-231 breast, in the test on HT29 colon and with HOP-92 NSCLC was above 100 µM throughout. The same compound had a TGI in the test on SF-539 CNS above 100 µM.
In the case of `CC1(C)CC(=O)C(/C=N/c2nc(-c3ccc(Br)cc3)cs2)=C(O)C1`, the TGI was above 100 µM with EKVX NSCLC; above 100 µM in the test on ACHN renal; 48.4 µM with SK-MEL-2 melanoma; above 100 µM with MDA-MB-231 breast; above 100 µM in the test with HT29 colon; above 100 µM in the test with HOP-92 NSCLC. The TGI in the test with SF-539 CNS was found to be 61 µM.
As for `COc1cc(C(=O)Nc2nnc(S(N)(=O)=O)s2)cc(OC)c1OC`, the TGI in the test with EKVX NSCLC, with ACHN renal, in the test with MALME-3M melanoma, in the test on SK-MEL-2 melanoma, in the test with MDA-MB-231 breast and in the test with HOP-92 NSCLC was above 100 µM throughout. The same compound gave a TGI in the test on SF-539 CNS above 100 µM.
As to `CCCCCCCCCCCCCCCCOCC(CC(F)(F)P(=O)(O)O)OC(C)=O` (centres undefined), the TGI in the test with EKVX NSCLC, in the test on ACHN renal, in the test with MALME-3M melanoma, in the test with SK-MEL-2 melanoma, in the test on MDA-MB-231 breast and in the test on HT29 colon was above 50 µM each time. The compound also came in with a TGI with HOP-92 NSCLC above 50 µM.
As for `CNc1ccc2nc(-c3ccc(OC(=O)N(C)C)cc3)cn2c1`, the TGI in the test on EKVX NSCLC was 33.4 µM; in the test on ACHN renal, 37.3 µM; with MALME-3M melanoma, above 100 µM; in the test with SK-MEL-2 melanoma, 31.8 µM; in the test on MDA-MB-231 breast, 31.5 µM; in the test on HT29 colon, 34 µM. In the test with HOP-92 NSCLC, the TGI was determined as 50 µM.
Turning to `C/C(=N\N=C(N)N)c1c(C(=O)OCCCCCCOC(=O)c2nc3sccn3c2/C(C)=N/N=C(N)N)nc2sccn12`, the TGI with EKVX NSCLC, with ACHN renal, in the test with MALME-3M melanoma, in the test with SK-MEL-2 melanoma, with MDA-MB-231 breast and in the test with HT29 colon was above 100 µM in each case. In the test on HOP-92 NSCLC, this compound showed a TGI above 100 µM.
As for `CC1=NN(c2nc(N)nc(/C(C#N)=C/c3ccncc3)n2)C(C)(C)C1`, the TGI in the test on EKVX NSCLC, in the test on ACHN renal, in the test with SK-MEL-2 melanoma, in the test on MDA-MB-231 breast, with HT29 colon and in the test on HOP-92 NSCLC was above 100 µM each time. The TGI in the test with SF-539 CNS was above 100 µM.
Take `Oc1ccc(-c2c3c(nc4c2CCc2ccc(Br)cc2-4)-c2cc(Br)ccc2CC3)cc1`: the TGI with EKVX NSCLC came out at 46.1 µM; with ACHN renal, 45.2 µM; with MALME-3M melanoma, 50.4 µM; in the test on SK-MEL-2 melanoma it was 35 µM; with MDA-MB-231 breast it was 34.5 µM; with HOP-92 NSCLC, 31.1 µM.
